Our source for the IC50 values is patent US6967196B1, “Sulfonamide compounds and uses thereof” (Bristol-Myers Squibb Company, priority 1999, dated 2005).

Usually IC50 stands for the concentration that gives 50% inhibition.

One assay concerns amyloid β production in transfected H4 (human neuroglioma) cells stably expressing APP constructs. Description: In vitro cell-based assay of inhibitors of amyloid β production (ELISA). The conditions noted are these: Homo sapiens, 16 h, transfected H4 cells stably expressing APP constructs; approximately 16 hours incubation; amyloid β in medium by ELISA; read-out: ACTIVITY (IC50, inhibition of amyloid β production). The method, boiled down:
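Cells expressing wild-type or variant APP were plated ≥6 h before medium was replaced with compound-containing medium (initial screen 10-100 μM) and incubated ~16 h. Secreted Aβ in medium was quantified by sandwich ELISA (C-terminal-specific mouse monoclonal capture, N-terminal rabbit polyclonal detection) against an Aβ standard curve.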
(In general: In an ELISA, binding on a coated surface is turned into a signal by an enzyme label.)
`COC(=O)C1SCCN1CC[C@@H](C)N(c1cc(Cl)ccc1Cl)S(=O)(=O)c1ccc(Cl)cc1` (stereo partly drawn) [Example 1119, 4-chloro-N-(2,5-dichlorophenyl)-N-[3-(2-methoxycarbonyl-3-thiazolidinyl)-1(R)-methylpropyl]benzenesulfonamide]: the concentration for half-maximal inhibition (IC50) is 25 to 50 nM.

In the case of `C[C@H](CCCN1CCCCC1CS(C)(=O)=O)N(c1cc(Cl)ccc1Cl)S(=O)(=O)c1ccc(Cl)cc1` (stereo partly drawn) [Example 1121, 4-chloro-N-(2,5-dichlorophenyl)-N-[4-[2-[(methylsulfonyl)methyl]-1-piperidinyl]-1(R)-methylbutyl]benzenesulfonamide], the IC50 lay in the range of 50 to 100 nM. The same measure, in the same setting: with `COC(=O)NCCC[C@@H](C)N(c1cc(Cl)ccc1Cl)S(=O)(=O)c1ccc(Cl)cc1` [Example 1131, 4-chloro-N-(2,5-dichlorophenyl)-N-[4-[[(methoxy)carbonyl]amino]-1-methylbutyl]benzenesulfonamide] the figure was 50 to 100 nM; with `CC(CCCN=[N+]=[N-])N(c1cc(Cl)ccc1Cl)S(=O)(=O)c1ccc(Cl)cc1` (stereo not drawn) [Example 1138, 4-chloro-N-(2,5-dichlorophenyl)-N-[4-(azido)-1-methylbutyl]benzenesulfonamide], 100 to 500 nM.

Regarding `C[C@H](CCCNC(=O)OC(C)(C)C)N(c1cc(Cl)ccc1Cl)S(=O)(=O)c1ccc(Cl)cc1` [Example 1145, 4-chloro-N-(2,5-dichlorophenyl)-N-[4-[[(1,1-dimethylethoxy)carbonyl]amino]-1-methylbutyl]benzenesulfonamide], the concentration for half-maximal inhibition (IC50) was 100 to 500 nM.

As to `C[C@H](CCCNC(=O)c1ccccc1)N(c1cc(Cl)ccc1Cl)S(=O)(=O)c1ccc(Cl)cc1` [Example 1149, 4-chloro-N-(2,5-dichlorophenyl)-N-[4-[[(phenyl)carbonyl]amino]-1-methylbutyl]benzenesulfonamide], the IC50 was in the range of 100 to 500 nM. On the same count and under the same terms, to `C[C@H](CCCNC(=O)OCc1ccccc1)N(c1cc(Cl)ccc1Cl)S(=O)(=O)c1ccc(Cl)cc1` [Example 1155, 4-chloro-N-(2,5-dichlorophenyl)-N-[4-[[(benzoxy)carbonyl]amino]-1-methylbutyl]benzenesulfonamide] belongs 100 to 500 nM.

The same assay, now with this note: Homo sapiens; transfected H4 cells stably expressing APP constructs; approximately 16 hours incubation; amyloid β in medium by ELISA; read-out: ACTIVITY (IC50, inhibition of amyloid β production).
Consider `C[C@H](CCCNC(=O)Oc1ccccc1)N(c1cc(Cl)ccc1Cl)S(=O)(=O)c1ccc(Cl)cc1` [Example 1154, 4-chloro-N-(2,5-dichlorophenyl)-N-[4-[[(phenoxy)carbonyl]amino]-1-methylbutyl]benzenesulfonamide], for which the IC50 lay within 100 to 500 nM.

The assay is the same for the next values; noted with them: transfected H4 cells stably expressing APP constructs; approximately 16 hours incubation; amyloid β in medium by ELISA; read-out: ACTIVITY (IC50, inhibition of amyloid β production).
In the case of `CC(C)Oc1c(NCCC[C@@H](C)N(c2cc(F)ccc2F)S(=O)(=O)c2ccc(Cl)cc2)c(=O)c1=O` [Example 1120, 4-chloro-N-(2,5-difluorophenyl)-N-[4-(2-isopropoxy-3,4-dioxo-1-cyclobutenyl)amine-1(R)-methylbutyl]benzenesulfonamide], the IC50 fell in the range of 25 to 50 nM.

For `CC(C)Oc1c(NCCC[C@@H](C)N(c2cc(Cl)ccc2F)S(=O)(=O)c2ccc(Cl)cc2)c(=O)c1=O` [Example 1122, 4-chloro-N-(5-chloro-2-fluorophenyl)-N-[4-(2-isopropoxy-3,4-dioxo-1-cyclobutenyl)amine-1(R)-methylbutyl]benzenesulfonamide], the IC50 lay in the range of 50 to 100 nM. The same measure, in the same setting: to `C[C@H](CCCCN1CCC(S(C)(=O)=O)CC1)N(c1cc(Cl)ccc1Cl)S(=O)(=O)c1ccc(Cl)cc1` [Example 1123, 4-chloro-N-(2,5-dichlorophenyl)-N-[5-[(4-methylsulfonyl)-1-piperidinyl]-1(R)-methylpentyl]benzenesulfonamide] belongs 50 to 100 nM. Turning to `C[C@H](CCCNC(=O)[C@@H](O)c1ccccc1)N(c1cc(Cl)ccc1Cl)S(=O)(=O)c1ccc(Cl)cc1` [Example 1124], the IC50 lay in the range of 50 to 100 nM.

Turning to `CC(C)Oc1c(NCC[C@@H](C)N(c2cc(F)ccc2F)S(=O)(=O)c2ccc(Cl)cc2)c(=O)c1=O` [Example 1125, 4-chloro-N-(2,5-difluorophenyl)-N-[3-(2-isopropoxy-3,4-dioxo-1-cyclobutenyl)amine-1(R)-methylpropyl]benzenesulfonamide], the IC50 lay within 50 to 100 nM.

With `C[C@H](CCCN1CCC(S(C)(=O)=O)CC1)N(c1cc(Cl)ccc1Cl)S(=O)(=O)c1ccc(Cl)cc1` [Example 1126, 4-chloro-N-(2,5-dichlorophenyl)-N-[4-[(4-methylsulfonyl)-1-piperidinyl]-1(R)-methylbutyl]benzenesulfonamide], the IC50 was in the range of 50 to 100 nM. For `CC(C)Oc1c(NCC[C@@H](C)N(c2cc(Cl)ccc2F)S(=O)(=O)c2ccc(Cl)cc2)c(=O)c1=O` [Example 1127, 4-chloro-N-(5-chloro-2-fluorophenyl)-N-[3-(2-isopropoxy-3,4-dioxo-1-cyclobutenyl)amine-1(R)-methylpropyl]benzenesulfonamide], the IC50 lay in the range of 50 to 100 nM.

Turning to `CC(C)Oc1c(NCCC[C@@H](C)N(c2cc(Cl)ccc2Cl)S(=O)(=O)c2ccc(Cl)cc2)c(=O)c1=O` [Example 1128, 4-chloro-N-(2,5-dichlorophenyl)-N-[4-(2-isopropoxy-3,4-dioxo-1-cyclobutenyl)amine-1(R)-methylbutyl]benzenesulfonamide], the IC50 is 50 to 100 nM. Turning to `C[C@H](CCCNC(=O)[C@H](O)c1ccccc1)N(c1cc(Cl)ccc1Cl)S(=O)(=O)c1ccc(Cl)cc1` [Example 1129], the half-inhibitory concentration (IC50) fell in the range of 50 to 100 nM. Same read-out and setting: to `C[C@H](CCN1CCCC(S(C)(=O)=O)C1)N(c1cc(Cl)ccc1Cl)S(=O)(=O)c1ccc(Cl)cc1` (stereo partly drawn) [Example 1132, 4-chloro-N-(2,5-dichlorophenyl)-N-[3-[(3-methylsulfonyl)-1-piperidinyl]-1(R)-methylpropyl]benzenesulfonamide] belongs 50 to 100 nM. Same read-out and setting: to `COC(=O)C1SCCN1CC[C@@H](C)N(c1cc(Cl)ccc1Cl)S(=O)(=O)c1ccc(Cl)cc1` (stereo partly drawn) [Example 1133, 4-chloro-N-(2,5-dichlorophenyl)-N-[3-(2-methoxycarbonyl-3-thiazolidinyl)-1(R)-methylpropyl]benzenesulfonamide] belongs 50 to 100 nM; to `CSC1CCN(CCC[C@@H](C)N(c2cc(Cl)ccc2Cl)S(=O)(=O)c2ccc(Cl)cc2)C1` (stereo partly drawn) [Example 1134, 4-chloro-N-(2,5-dichlorophenyl)-N-[4-[(3-methylthio)-1-pyrrolidinyl]-1(R)-methylbutyl]benzenesulfonamide], 100 to 500 nM. The same measure, in the same setting: with `C[C@H](CCCN(CCCn1ccnc1)CC1CC1)N(c1cc(Cl)ccc1Cl)S(=O)(=O)c1ccc(Cl)cc1` [Example 1135] the figure was 100 to 500 nM. Turning to `C[C@H](CCCN1CCCC(S(C)(=O)=O)C1)N(c1cc(Cl)ccc1Cl)S(=O)(=O)c1ccc(Cl)cc1` (stereo partly drawn) [Example 1136], the 50% inhibitory concentration (IC50) lay within 100 to 500 nM. On to `CC(CC[C@@H](C)N(c1cc(Cl)ccc1Cl)S(=O)(=O)c1ccc(Cl)cc1)N1CCCC(S(C)(=O)=O)C1` (stereo partly drawn) [Example 1140], for which the IC50 fell in the range of 100 to 500 nM.

As for `CC(C)Oc1c(NCC[C@@H](C)N(c2cc(F)ccc2F)S(=O)(=O)c2ccc(Cl)cc2)c(=O)c1=O` [Example 1141, 4-chloro-N-(2,5-difluorophenyl)-N-[3-(2-isopropoxy-3,4-dioxo-1-cyclobutenyl)amine-1(R)-methylpropyl]benzenesulfonamide], the IC50 fell in the range of 100 to 500 nM.

As for `CSC1CCCN(CC[C@@H](C)N(c2cc(Cl)ccc2Cl)S(=O)(=O)c2ccc(Cl)cc2)C1` (stereo partly drawn) [Example 1142, 4-chloro-N-(2,5-dichlorophenyl)-N-[3-[(3-methylthio)-1-piperidinyl]-1(R)-methylpropyl]benzenesulfonamide], the IC50 is 100 to 500 nM. For `CSC1CCN(CCC[C@@H](C)N(c2cc(Cl)ccc2Cl)S(=O)(=O)c2ccc(Cl)cc2)C1` (stereo partly drawn) [Example 1144, 4-chloro-N-(2,5-dichlorophenyl)-N-[4-[(4-methylthio)-1-pyrrolidinyl]-1(R)-methylbutyl]benzenesulfonamide], the IC50 lay in the range of 100 to 500 nM.

For `C[C@H](CCN1CCC(S(C)(=O)=O)CC1)N(c1cc(Cl)ccc1Cl)S(=O)(=O)c1ccc(Cl)cc1` [Example 1146, 4-chloro-N-(2,5-dichlorophenyl)-N-[3-[(4-methylsulfonyl)-1-piperidinyl]-1(R)-methylpropyl]benzenesulfonamide], the IC50 is 100 to 500 nM.

Consider `CSC1CCN(CC[C@@H](C)N(c2cc(Cl)ccc2Cl)S(=O)(=O)c2ccc(Cl)cc2)C1` (stereo partly drawn) [Example 1147, 4-chloro-N-(2,5-dichlorophenyl)-N-[3-[(3-methylthio)-1-pyrrolidinyl]-1(R)-methylpropyl]benzenesulfonamide], for which the IC50 was 100 to 500 nM. The same measure, in the same setting: with `CSC1CCN(CCC[C@@H](C)N(c2cc(Cl)ccc2Cl)S(=O)(=O)c2ccc(Cl)cc2)C1` (stereo partly drawn) [Example 1148] the figure was 100 to 500 nM; with `C[C@H](CCCCN1CCC(CS(C)(=O)=O)CC1)N(c1cc(Cl)ccc1Cl)S(=O)(=O)c1ccc(Cl)cc1` [Example 1150, 4-chloro-N-(2,5-dichlorophenyl)-N-[5-[[4-(methylsulfonyl)methyl]-1-piperidinyl]-1(R)-methylpentyl]benzenesulfonamide], 100 to 500 nM; with `C[C@H](CCN1CCCC(CS(C)(=O)=O)C1)N(c1cc(Cl)ccc1Cl)S(=O)(=O)c1ccc(Cl)cc1` (stereo partly drawn) [Example 1151, 4-chloro-N-(2,5-dichlorophenyl)-N-[3-[(3-(methylsulfonyl)methyl]-1-piperidinyl]-1(R)-methylpropyl)benzenesulfonamide], 100 to 500 nM. The same measure, in the same setting: with `CC(CCCN)N(c1cc(Cl)ccc1Cl)S(=O)(=O)c1ccc(Cl)cc1` (stereo not drawn) [Example 1152] the figure was 100 to 500 nM; with `CSC1CCCN(CCC[C@@H](C)N(c2cc(Cl)ccc2Cl)S(=O)(=O)c2ccc(Cl)cc2)C1` (stereo partly drawn) [Example 1153, 4-chloro-N-(2,5-dichlorophenyl)-N-[4-[(3-methylthio)-1-piperidinyl]-1(R)-methylbutyl]benzenesulfonamide], 100 to 500 nM.
